Test results as given in PMC6774072, “Azologization and repurposing of a hetero-stilbene-based kinase inhibitor: towards the design of photoswitchable sirtuin inhibitors” (Beilstein Journal of Organic Chemistry, 2019).
Where “and” joins values, the source holds several entries; their conditions need not be identical. Identical values can stand only once.

Tests used:
Sirt1 = target: T1, Sirt1 (Homo sapiens, UniProt Q96EB6); assay: fluorescence-based deacetylase assay with Z-Lys(acetyl)-AMC (ZMAL) substrate; format: biochemical; settings: for Sirt1 inhibition: n.i. = no inhibition detected, tested at 100 µM, 50 µM and 10 µM
T1 construct: Expression and purification of Sirt1_133-747; made in house
T1 sequence (Q96EB6 133-747): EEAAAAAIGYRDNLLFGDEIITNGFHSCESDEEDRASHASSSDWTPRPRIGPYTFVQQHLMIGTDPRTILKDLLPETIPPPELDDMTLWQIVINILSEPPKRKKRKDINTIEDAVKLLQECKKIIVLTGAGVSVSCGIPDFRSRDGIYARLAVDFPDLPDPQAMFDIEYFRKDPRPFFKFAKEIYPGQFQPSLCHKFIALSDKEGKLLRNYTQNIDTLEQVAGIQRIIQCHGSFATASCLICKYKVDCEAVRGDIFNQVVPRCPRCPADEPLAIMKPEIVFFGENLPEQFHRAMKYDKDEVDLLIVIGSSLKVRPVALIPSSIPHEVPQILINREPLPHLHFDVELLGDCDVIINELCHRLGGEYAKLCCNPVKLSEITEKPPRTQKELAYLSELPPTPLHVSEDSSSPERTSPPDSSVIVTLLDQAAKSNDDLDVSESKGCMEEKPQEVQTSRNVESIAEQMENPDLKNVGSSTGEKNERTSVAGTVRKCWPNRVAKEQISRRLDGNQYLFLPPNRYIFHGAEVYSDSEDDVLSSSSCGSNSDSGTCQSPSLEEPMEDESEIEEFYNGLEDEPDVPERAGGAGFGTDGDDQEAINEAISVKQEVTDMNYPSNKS
Experimental: (§1) The influence on deacetylase activity of three human sirtuin isoforms (Sirt1–3) was determined in a fluorescence-based assay, using Z-Lys(acetyl)-AMC (ZMAL) as a substrate. Compared to the lead structure 2a, all compounds except 2e–h show increased inhibitory activity against Sirt2 (Table 1). […] Moreover, a slight increase in selectivity for Sirt2 and Sirt3 over Sirt1 could be observed for 2c, 4a and 4b. […] Though not photoswitchable, compounds 4a and 4b were synthesized to test the influence of a rigid conformation around the C=C double bond on sirtuin inhibition. […] A recently developed fluorescence polarization (FP)-based assay enables mapping of ligand binding to this specific binding site. For 2a an interaction with the selectivity pocket was already implied in the same work. Additionally performed docking studies proposed a binding mode in which 2a mimics the nicotinamide residue of NAD^+, whereas aromatic amino acid residues of the selectivity pocket stabilize the dimethylphenol ring. As photoisomerization in stilbenes and azo dyes is accompanied by a perpendicular twist of the phenyl ring towards the former molecular plane, we assumed that this conformational change should provoke a differential binding situation at least for the dimethylphenol residue in 2a. Unfortunately, binding of 2b and c could not be localised in the vicinity of the selectivity pocket of Sirt2, so that the binding pose remains unclear.
(§2) The photoswitchable diazeno compound 11 was subjected to biological evaluation to test the effect of photoisomerization on the inhibitory activity. The enzyme assay mixture containing 11 was exposed to 5 minutes of 365 nm radiation and compared with the results of a non-irradiated measurement. […] Unfortunately, 365 nm radiation turned out to have only minor effects on the IC50 values of 11 (Table 3).
(§3) Cloning, expression and purification of recombinant proteins: Expression and purification of Sirt1_133-747, Sirt2_56−356, and Sirt3_118−395 was carried out as described previously. Identity and purity were verified by SDS-PAGE [65]. Protein concentration was determined by the Bradford assay.
(§4) Bioassay: The inhibitory effect of compounds 2a–h, 4a/b, 8a and 11 on Sirt1–3 was detected via a previously reported fluorescence based assay. The synthetic substrate Z-Lys(acetyl)-AMC (ZMAL) is deacetylated by sirtuins, followed by tryptic digestion and thereby release of […], leading to a fluorescent readout. Inhibition was determined by comparing percentage substrate conversion to a DMSO control after subtraction of the blank fluorescence signal. All compounds were tested at 100 µM, 50 µM and 10 µM, respectively. […] IC50 values were calculated with OriginPro 9.0 G using a non-linear regression to fit the dose response curve. An enzyme-free blank control and a 100% conversion control using AMC instead of ZMAL were measured as well. Inhibition measurements were performed in biological duplicates for all compounds.

Sirt2 = target: T2, Sirt2 (Homo sapiens, UniProt Q8IXJ6); assay: as above; format: biochemical; settings: for IC50: mean ± SD of duplicate experiments, read-out: Sirt2 inhibition IC50; for inhibition at 10 µM / inhibition at 50 µM: percent inhibition relative to controls
T2 construct: Sirt2_56−356; made in house
T2 sequence (Q8IXJ6 56-356): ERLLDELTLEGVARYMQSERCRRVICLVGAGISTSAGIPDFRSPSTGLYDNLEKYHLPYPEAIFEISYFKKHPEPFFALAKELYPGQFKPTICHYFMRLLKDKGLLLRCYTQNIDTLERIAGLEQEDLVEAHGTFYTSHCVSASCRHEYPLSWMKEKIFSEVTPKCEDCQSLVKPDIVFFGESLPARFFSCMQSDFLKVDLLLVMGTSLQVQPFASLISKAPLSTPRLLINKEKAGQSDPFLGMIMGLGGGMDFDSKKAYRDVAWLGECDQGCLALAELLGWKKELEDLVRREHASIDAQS
Experimental: as §1, §2, §3, §4

Sirt3 = target: T3, Sirt3 (Homo sapiens, UniProt Q9NTG7); assay: as above; format: biochemical; settings: for IC50: mean ± SD of duplicate experiments, read-out: Sirt3 inhibition IC50; for inhibition at 50 µM / inhibition at 10 µM: percent inhibition relative to controls; for Sirt3 inhibition: n.i. = no inhibition detected, tested at 100 µM, 50 µM and 10 µM
T3 construct: Sirt3_118−395; made in house
T3 sequence (Q9NTG7 118-395): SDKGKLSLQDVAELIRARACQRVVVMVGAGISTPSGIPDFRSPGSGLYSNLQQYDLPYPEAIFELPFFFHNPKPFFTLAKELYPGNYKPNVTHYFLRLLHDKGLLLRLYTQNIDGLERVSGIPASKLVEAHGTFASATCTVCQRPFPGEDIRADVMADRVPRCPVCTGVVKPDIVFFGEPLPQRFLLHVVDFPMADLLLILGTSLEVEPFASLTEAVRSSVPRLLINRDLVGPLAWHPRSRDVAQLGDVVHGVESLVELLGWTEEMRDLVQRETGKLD
Experimental: as §1, §2, §3, §4

[1] = E→Z photoisomerization of azastilbenes under 254 nm irradiation, proton NMR analysis; format: physicochemical; settings: after 100 minutes of 254 nm irradiation, 10 mM in methanol
Experimental: Photochemistry of compounds 2b and 2f was investigated via UV–vis spectroscopy, LC–HRMS and NMR spectroscopy. Compound 2b represents the core structure of the azastilbenes investigated, whereas in 2f the influence of ortho methylation was intended to be examined. For UV–vis spectroscopy 50 µM solutions in 5% DMSO (v/v) in enzyme assay buffer were used, as this reflects the enzyme assay conditions. However, for LC-HRMS and NMR analysis, a higher concentration of 10 mM in methanol was necessary to receive reliable chromatograms and spectra.
LC–HRMS analysis provided deeper insights and clarified the differential behaviour observed in the UV–vis spectra of 2b and 2f after UV irradiation. As anticipated, UV irradiation lead to E→Z isomerization of the C=C double bond in both compounds. […] Unfortunately, the amount of photoisomerization was only moderate, since after 100 minutes of continuous irradiation still substantial amounts of the (E)-isomers were present in the mixtures (Figure 3). Proton NMR analysis implied photostationary states comprising a relative percentage of 45% (Z)-2b and 57% (Z)-2f, respectively after 100 minutes of 254 nm irradiation. The NMR spectra can be found in Supporting Information File 1.
Photochemistry: All photoisomerization experiments were conducted under ruby light of 630 nm. […]

[2] = percent inhibition relative to controls

Cc1cc(O)cc(C)c1/C=C/c1cncc(C(N)=O)c1 [Compound 2a, reference compound]
inhibition at 50 µM (Sirt1; [2]): 27% | IC50 (Sirt2): 24.6 ± 2.8 µM | IC50 (Sirt3): 41.7 ± 2 µM

NC(=O)c1cncc(/C=C/c2ccccc2)c1 [Compound 2b, (E)-5-Styrylnicotinamide]
inhibition at 10 µM (Sirt1; [2]): 71% | IC50 (Sirt2): 8.7 ± 0.2 µM | inhibition at 50 µM (Sirt3): 89% | relative percentage of (Z)-isomer in photostationary state [1]: 45%

NC(=O)c1cncc(/C=C/c2ccc(F)cc2)c1 [Compound 2c, (E)-5-(4-Fluorostyryl)nicotinamide]
inhibition at 100 µM (Sirt1; @ 100 µM, percent inhibition relative to controls): 51% | IC50 (Sirt2): ~7 µM and 6.6 µM | IC50 (Sirt3): 7.5 ± 0.9 µM

COc1ccc(/C=C/c2cncc(C(N)=O)c2)cc1 [Compound 2d]
inhibition at 10 µM (Sirt1; [2]): 51% | inhibition at 10 µM (Sirt2): 64% | inhibition at 50 µM (Sirt3): 90%

NC(=O)c1cncc(/C=C/c2cccc(OCc3ccccc3)c2)c1 [Compound 2e]
inhibition at 50 µM (Sirt1; [2]): 61% | inhibition at 50 µM (Sirt2): 69% | inhibition at 50 µM (Sirt3): 60%

COc1cc(C)c(/C=C/c2cncc(C(N)=O)c2)c(C)c1 [Compound 2f]
inhibition at 10 µM (Sirt1; [2]): 26% | inhibition at 10 µM (Sirt2): 21% | inhibition at 50 µM (Sirt3): 79% | relative percentage of (Z)-isomer in photostationary state [1]: 57%

NC(=O)c1cncc(/C=C/c2ccc3c(c2)OCO3)c1 [Compound 2g]
inhibition at 50 µM (Sirt1; [2]): 52% | inhibition at 50 µM (Sirt2): 62% | inhibition at 50 µM (Sirt3): 87%

NC(=O)c1cncc(/C=C/c2cccc(NC(=O)c3ccc(OCc4ccccc4)cc3)c2)c1 [Compound 2h]
Sirt1 inhibition (Sirt1): n.i. | inhibition at 10 µM (Sirt2): 9% | Sirt3 inhibition (Sirt3): n.i.

NC(=O)c1cncc(C2=Cc3ccccc3CC2)c1 [Compound 4a]
Sirt1 inhibition (Sirt1): complete loss of activity and n.i. | inhibition at 10 µM (Sirt2): 48% | inhibition at 10 µM (Sirt3): 38%

NC(=O)c1cncc(-c2ccc3ccccc3c2)c1 [Compound 4b]
Sirt1 inhibition (Sirt1): complete loss of activity and n.i. | inhibition at 10 µM (Sirt2): 45% | inhibition at 10 µM (Sirt3): 38%

NC(=O)c1cnc2c(ccc3ccccc32)c1 [Compound 8a]
Sirt1 inhibition (Sirt1): complete inactivity and n.i. | Sirt2 inhibition (Sirt2; n.i. = no inhibition detected, tested at 100 µM, 50 µM and 10 µM): complete inactivity and n.i. | Sirt3 inhibition (Sirt3): complete inactivity and n.i. | melting point: 276.8 °C
